Laboratory results reported in patent US12630497B2, “Compound having malate dehydrogenase inhibitory activity and pharmaceutical composition for preventing or treating cancer comprising same as active ingredient” (DONGGUK UNIVERSITY INDUSTRY-ACADEMIC COOPERATION FOUNDATION, priority 2017, dated 2026).

Tests used:
Type in all cases: cell-based
[1] = tested on: HCT-116 cells; assay: Mitochondrial oxygen consumption rate (XF24 extracellular flux analyzer)
Method: More specifically, a mitochondrial oxygen consumption rate (OCR) was measured using a XF24 extracellular flux analyzer (Seahorse Bioscience). HCT-116 cells (1×10^5 cells) were cultured in a culture plate (XF24 cell culture plate) for 24 hours, the culture medium was exchanged with a XF assay medium, and then the cells were incubated in a carbon dioxide-free cell incubator for 1 hour. After the mitochondrial oxygen consumption rate was measured three times in drug-free cells, oxygen consumption rates were measured three times after the administration of oligomycin (1 μM), which is an ATP synthesis inhibitor, three times after the administration of carbonyl cyanide p-trifluoromethoxyphenylhydrazone (0.5 μM), which is a chemical uncoupler, and three times after the administration of rotenone (1 μM) and antimycin A (1 μM), which are electron transport chain inhibitors.

[2] = tested on: HIF-1α; assay: HIF-1α inhibitory activity, immunoblot in hypoxic HCT-116 cells; details: HCT-116, hypoxia (1% oxygen) 6 hours; 2.5, 5 and 10 μM
Method: Hypoxia-inducible factor-1α (HIF-1α) is a factor that affects radioresistance and chemoresistance in solid cancer and malignancy of cancer. More specifically, an HCT-116 colorectal cancer cell line was suspended in DMEM containing 5% fetal bovine serum (FBS), transferred to a 6-well plate (5×10^5 cells/well), and cultured in a 37 D cell incubator maintaining 5% carbon dioxide for 24 hours. To induce the accumulation of HIF-1a protein by hypoxia, the cells were cultured under 1% oxygen, 94% nitrogen and 5% carbon dioxide conditions for 6 hours. The HCT-116 cells were disrupted using a radioimmunoprecipitation assay buffer (RIPA buffer, Millipore), thereby obtaining a cell extract, and 10 μg each of the cell extract was isolated through SDS-PAGE, transferred to a polyvinylidene fluoride (PVDF) membrane, followed by sequentially binding of a HIF-1α antibody (BD Biosciences), a HIF-1β antibody (BD Biosciences), a β-Actin (SantaCruz) and horseradish peroxidase (HRP)-labeled secondary antibody (SantaCruz) to confirm protein expression.

[3] = tested on: NUGC-3; assay: Cell proliferation inhibition (methylene blue); details: Homo sapiens; NUGC-3 gastric or stomach cancer cell line, 72 hours; read-out: Viability GI50
From the text: (§1) Cell lines used in the experiment are lung cancer cell lines A549 and H1703, colorectal cancer cell lines HCT116 and HT29, liver cancer cell lines Hep3B and HepG2, gastric or stomach cancer cell lines NUGC-3 and AGS, kidney and renal cancer cell lines 786-O and Caki-1, breast cancer cell lines MCF-7 and MDA-MB-231, a prostate cancer cell line PC3, a pancreatic cancer cell line MIA-PaCa-2, a cervical cancer cell line HeLa, and normal cell lines WI-38 and CCD-32Lu. Specifically, each of the cell lines was suspended in DMEM containing 5% FBS, transferred to a 96-well plate (3×10^3 cells/well), and cultured in a 37 □ cell incubator maintaining 5% carbon dioxide for 24 hours. […] Afterward, a change in the concentration of methylene blue extracted with a 0.5% aqueous hydrochloric acid solution was analyzed by measuring absorbance at 600 nm.

[4] = tested on: AGS; assay: Cell proliferation inhibition (methylene blue); details: Homo sapiens; AGS gastric or stomach cancer cell line, 72 hours; read-out: Viability GI50
From the text: as §1

[5] = tested on: 786-O; assay: Cell proliferation inhibition (methylene blue); details: Homo sapiens, 786-0; 786-O kidney and renal cancer cell line, 72 hours; read-out: Viability GI50
From the text: as §1

[6] = tested on: PC3; assay: Cell proliferation inhibition (methylene blue); details: Homo sapiens, PC-3; PC3 prostate cancer cell line, 72 hours; read-out: Viability GI50
From the text: as §1

[7] = tested on: HeLa; assay: Cell proliferation inhibition (methylene blue); details: Homo sapiens; HeLa cervical cancer cell line, 72 hours; read-out: Viability GI50
From the text: as §1

[8] = tested on: HT29; assay: Cell proliferation inhibition (methylene blue); details: Homo sapiens, HT-29; HT29 colorectal cancer cell line, 72 hours; read-out: Viability GI50
From the text: as §1

[9] = tested on: MCF-7; assay: Cell proliferation inhibition (methylene blue); details: Homo sapiens, MCF7; MCF-7 breast cancer cell line, 72 hours; read-out: Viability GI50
From the text: as §1

[10] = tested on: HCT116; assay: Cell proliferation inhibition (methylene blue)
From the text: as §1

[11] = tested on: CCD-32Lu; assay: Cell proliferation inhibition (methylene blue)
From the text: as §1

[12] = tested on: A549; assay: Cell proliferation inhibition (methylene blue)
From the text: as §1

[13] = tested on: H1703; assay: Cell proliferation inhibition (methylene blue); details: Homo sapiens, NCI-H1703; H1703 lung cancer cell line, 72 hours; read-out: Viability GI50
From the text: as §1

[14] = tested on: Caki-1; assay: Cell proliferation inhibition (methylene blue); details: Homo sapiens; Caki-1 kidney and renal cancer cell line, 72 hours; read-out: Viability GI50
From the text: as §1

[15] = tested on: MIA PaCa-2; assay: Cell proliferation inhibition (methylene blue); details: Homo sapiens; MIA PaCa-2 pancreatic cancer cell line, 72 hours; read-out: Viability GI50
From the text: as §1

[16] = tested on: HepG2; assay: Cell proliferation inhibition (methylene blue)
From the text: as §1

[17] = tested on: Hep3B; assay: Cell proliferation inhibition (methylene blue); details: Homo sapiens; Hep3B liver cancer cell line, 72 hours; read-out: Viability GI50
From the text: as §1

[18] = tested on: WI-38; assay: Cell proliferation inhibition (methylene blue)
From the text: as §1

[19] = tested on: HCT-116 cells; assay: Intracellular oxygen concentration, hypoxia-sensitive fluorescent probe MAR; details: hypoxia 6 hours, MAR probe 0.5 μM
Method: Afterward, an intracellular change in fluorescence intensity by hypoxia was measured and quantified using the IncuCyte® live-cell analysis system (Essen BioScience).

**Q.** For `COC(=O)c1cccc(NC(=O)CCOc2ccc(C(C)(C)CC(C)(C)C)cc2)c1` [Compound 9-2, Methyl 3-(3-(4-(2,4,4-trimethylpentan-2-yl)phenoxy)propanamido)benzoate], which basal respiration rate [1] is on record?
**A.** Its basal respiration rate is “decrease in a concentration-dependent manner”.

**Q.** And the maximum respiration rate [1]?
**A.** Its maximum respiration rate is “decrease in a concentration-dependent manner”.

**Q.** What about the “mitochondrial oxygen consumption rate” value [1] of the same compound?
**A.** Its value is “inhibited a mitochondrial oxygen consumption rate”.

**Q.** And the HIF-1α protein accumulation [2]?
**A.** The HIF-1α protein accumulation was “inhibits HIF-1α protein accumulation in a concentration-dependent manner”.

**Q.** And the GI50 [3]?
**A.** The GI50 was 5 to 10 µM.

**Q.** What about the GI50 [4] of the same compound?
**A.** Its GI50 is 10 to 20 µM.

**Q.** And the GI50 [5]?
**A.** The GI50 was 10 to 20 µM.

**Q.** And the GI50 [6]?
**A.** Its GI50 is 10 to 20 µM.

**Q.** What about the GI50 [7] of the same compound?
**A.** Its GI50 is 10 to 20 µM.

**Q.** What about the GI50 [8] of the same compound?
**A.** Its GI50 is 5 to 10 µM.

**Q.** What about the GI50 [9] of the same compound?
**A.** The GI50 was 10 to 20 µM.

**Q.** And the “inhibitory effect on proliferation” value ([10]; HCT116 cells)?
**A.** Its value is “strong inhibitory effect”.

**Q.** And the GI50 ([10]; Homo sapiens, HCT-116, HCT116 colorectal cancer cell line, 72 hours, read-out: Viability GI50)?
**A.** Its GI50 is 1000 to 5000 nM.

**Q.** What about the GI50 ([11]; CCD-32Lu normal cell line, 72 hours, read-out: Viability GI50) of the same compound?
**A.** Its GI50 is over 20 µM.

**Q.** What about the “effect on proliferation of normal cell lines” value ([11]; CCD-32Lu, within concentration range in which proliferation of cancer cells is inhibited) of the same compound?
**A.** Its value is “no effect on the proliferation of normal cell lines”.

**Q.** And the “inhibitory effect on proliferation” value ([12]; A549 cells)?
**A.** Its value is “strong inhibitory effect”.

**Q.** What about the GI50 ([12]; Homo sapiens, A549 lung cancer cell line, 72 hours, read-out: Viability GI50) of the same compound?
**A.** Its GI50 is 1000 to 5000 nM.

**Q.** What about the GI50 [13] of the same compound?
**A.** Its GI50 is 5 to 10 µM.

**Q.** And the GI50 [14]?
**A.** Its GI50 is 10 to 20 µM.

**Q.** What about the GI50 [15] of the same compound?
**A.** Its GI50 is 5 to 10 µM.

**Q.** And the “inhibitory effect on proliferation” value ([16]; HepG2 cells)?
**A.** The value was “strong inhibitory effect”.

**Q.** What about the GI50 ([16]; Homo sapiens, HepG2 liver cancer cell line, 72 hours, read-out: Viability GI50) of the same compound?
**A.** Its GI50 is 1000 to 5000 nM.

**Q.** What about the GI50 [17] of the same compound?
**A.** The GI50 was 10 to 20 µM.

**Q.** What about the GI50 ([18]; Homo sapiens, WI-38 normal cell line, 72 hours, read-out: Viability GI50) of the same compound?
**A.** Its GI50 is over 20 µM.

**Q.** And the “effect on proliferation of normal cell lines” value ([18]; WI-38, within concentration range in which proliferation of cancer cells is inhibited)?
**A.** The value was “no effect on the proliferation of normal cell lines”.

**Q.** What about the intracellular oxygen concentration [19] of the same compound?
**A.** The intracellular oxygen concentration was “increased”.
